Measurements: ChEMBL document CHEMBL3988181, “GlaxoSmithKline Published Kinase Inhibitor Set 2 Onchocerca lienalis Screening Data”

Test: GSK PKIS2: Screen against O. lienalis microfilariae, single point, at 3.1uM to assess reduction in motility. Compounds were also tested for cytotoxicity against Rhesus Monkey LLCMK2 cells.
Assay type: functional, Onchocerca lienalis, LLC-MK2
Conditions: CELL_LINE LLCMK2; CELL_SUPPLIER ECACC; CONC 3.1 uM; ORGANISM_SUPPLIER Extracted from peri-umbilical skin obtained from naturally infected cattle in the UK; temperature 37 degree C

| SMILES | MOTILITY REDUCTION/CYTOTOXICITY |
| --- | --- |
| Cc1cccc(-c2nc(C)cc(Nc3ccncc3)n2)n1 | 0% |
| COc1ccc(C2=C(Nc3cccc(Cl)c3)C(=O)NC2=O)cc1 | 0% |
| O=S(=O)(c1cccc(F)c1)c1ccc(Nc2ncnc3cc(Br)sc23)cc1Cl | 73.4% |
| Nc1ncnc2[nH]c(-c3ccccc3)nc12 | 0% |
| Cc1nn2c(=O)cc(N3CCO[C@H](C)C3)nc2n1Cc1cccc(Cl)c1Cl | 33.4% |
| CCn1c(-c2nonc2N)nc2c(C#CC(C)(C)O)ncc(OCCCCN)c21 | 13.4% |
| Cc1ccc(NC(=O)c2ccnc(N3CCCCC3)c2)cc1-c1ccc(C(=O)NCC2CC2)cc1 | 0% |
| N#Cc1ccc(-c2cc(-c3c[nH]nc3-c3ccccn3)ccn2)cc1 | 0% |
| CN(C(=O)c1ccc(-c2cc(-c3c[nH]nc3-c3ccccn3)ccn2)cc1)C1CCOCC1 | 0% |
| Cc1nnc(-c2ccc(C)c(-c3ccc(C(=O)O)cc3)c2)o1 | 33.4% |
| CN1C(=O)C(Nc2cc(Cl)c(O)c(Cl)c2)=C(c2ccc(Cl)cc2)C1=O | 0% |
| O=c1cc(N2CCOCC2)nc2n(Cc3cccc(Cl)c3)ccn12 | 0% |
| c1ccc(-c2cnc3nccnn23)cc1 | 0% |
| FC(F)(F)c1ccc(-c2nn3ncccc3c2-c2ccnc(Nc3cccc(C(F)(F)F)c3)n2)cc1 | 0% |
| COc1ccc(Nc2nccc(N3CCC(NC(=O)Nc4ccc5c(c4)OCO5)C3)n2)cc1 (stereo not given) | 20% |
| NCC(NC(=O)c1cc(-c2cn[nH]c2)c(-c2ccnc3[nH]ccc23)s1)c1ccccc1 (stereo not given) | 0% |
| CCc1nc(-c2cccc(N(C)S(=O)(=O)c3ccccc3)c2)c(-c2ccnc(Nc3ccc(N4CCN(C(C)=O)CC4)nc3)n2)s1 | 0% |
| COc1ccc(Nc2nccc(-c3ccc(NC(=O)c4cc5cc(F)ccc5[nH]4)cc3)n2)cc1 | 60% |
| Cc1c(Cn2c(C)c(C)n3c(=O)cc(N4CCOCC4)nc23)cccc1C(F)(F)F | 0% |
| COc1ccc(C2=C(Nc3cccc(C(=O)O)c3)C(=O)NC2=O)cc1 | 20% |
| Oc1ccc2ncnc(Nc3ccc(OCc4ccccc4)cc3)c2c1 | 100% |
| Nc1ncc(-c2cccnc2)c2scc(-c3ccc4c(c3)CCN4C(=O)Cc3ccccc3)c12 | 0% |
| Nc1nccc(-c2c(-c3ccc(F)cc3)ncn2C2CCN(CC(F)(F)F)CC2)n1 | 0% |

| SMILES | MOTILITY REDUCTION/CYTOTOXICITY |
| --- | --- |
| CC(C)c1nc(-c2cccc(NS(=O)(=O)c3c(F)cccc3F)c2F)c(-c2ccnc(Nc3ccc(N4CCOCC4)nc3)n2)s1 | 93.4% |
| O=C(Nc1ccc2c(c1)OCO2)NC1CCN(c2ccnc(Nc3ccc(F)cc3)n2)C1 (stereo not given) | 33.4% |
| CN(c1ccc(NC(=O)Nc2cccc(Cl)c2)cc1)c1ccnc(N)n1 | 13.4% |
| COc1cccc(-n2cnc3c(N)ncnc32)c1 | 0% |
| Cc1c(Cn2c(C)nn3c(=O)cc(N4CCOC(C)C4)nc23)cccc1C(F)(F)F (stereo not given) | 0% |
| O=C(Nc1n[nH]c2cc(-c3cccc(F)c3)ccc12)C1CC1 | 0% |
| COc1ccc(Nc2nccc(N3CCC(NC(=O)C(C)c4ccc(Cl)cc4)CC3)n2)cc1 (stereo not given) | 33.4% |
| Cc1ccc(C(=O)Nc2ccc(Nc3ccnc4cc(-c5ccccn5)ccc34)cc2O)cc1 | 0% |
| COc1cccc(-c2cc(-c3c[nH]nc3-c3ccccn3)ccn2)c1 | 0% |
| FC(F)(F)c1ccc(-c2ncn(CCCN3CCOCC3)c2-c2ccncc2)cc1 | 40% |
| O=C(Nc1ccccc1F)NC1CCN(c2ccnc(Nc3ccc(F)cc3)n2)C1 (stereo not given) | 0% |
| FC(F)(F)c1cc(Nc2nccc(-c3c(-c4ccc(Cl)cc4)nn4ncccc34)n2)ccc1Cl | 20% |
| Cn1cc(-c2ccc3c(c2)CCN3C(=O)Cc2cc(F)cc(F)c2F)c2c(N)ncnc21 | 0% |
| CCn1c(-c2cccnc2O)nc2cnccc21 | 13.4% |
| COc1cc(Nc2nccc(N3CCC(NS(=O)(=O)c4ccc(NC(C)=O)cc4)CC3)n2)cc(OC)c1OC | 33.4% |
| COc1ccccc1C1=C(Nc2ccc(O)c(Cl)c2)C(=O)NC1=O | 0% |
| Cc1ccc(-c2cc(-c3c[nH]nc3-c3ccccn3)ccn2)cc1 | 0% |
| CS(=O)(=O)Nc1ccc(-c2ccnc3[nH]ccc23)cc1 | 0% |
| COc1ccc(NC(=O)c2ccoc2)cc1-c1ccc(C(=O)NCC2CC2)cc1 | 13.4% |
| Cc1cccc(Nc2nc(N[C@H]3CCCC[C@H]3N)ncc2C(N)=O)c1 | 40% |
| O=C1NC(=O)C(c2ccccc2)=C1Nc1cc(Cl)c(O)c(Cl)c1 | 0% |
| Cc1ccccc1Cn1ccn2c(=O)cc(N3CCOCC3)nc12 | 0% |
